From patent US20130245038A1, “Method For Selecting Or Identifying A Subject For V1B Antagonist Therapy” (ABBVIE DEUTSCHLAND GMBH & CO. KG, priority 2012, published 2013)

Legend:
Type in all cases: in vivo, human
[1] = system: physiological response to a stressor (CRH challenge); assay: Cortisol reactivity to a CRH challenge in MDD subjects of the clinical study; conditions: maximum post-CRH serum cortisol divided by pre-CRH serum cortisol, Day 7
Text: High AVP was defined as ≧8.6 pg/mL, in a sample drawn at approximately 8 am or 2 pm on the day prior to initiation of study drug administration. The analysis of covariance model for Day 7 cortisol reactivity included Day −1 (baseline) cortisol reactivity as a covariate and factors for investigator, treatment, AVP class and treatment * AVP class interaction. A randomized, placebo-controlled, double-blind clinical study of the safety and pharmacodynamics of Compound A in subjects with MDD was conducted. Fifty-one subjects with a M.I.N.I.-confirmed primary diagnosis of MDD and a clinical global impression of severity of 3 or 4 were randomized to 800 mg Compound A QD (n=31) or matching placebo (n=20) for 7 days. Subjects were confined at clinical sites from two days prior to initial study drug administration until 24 hours after the last dose of study drug. HPA axis function was thoroughly assessed prior to study drug administration and on the 6th and 7th dosing days. A panel of genetic variants related to HPA axis function was assayed. One stated aim of this study was to define a means to identify MDD subjects more likely to respond to Compound A, prior to Compound A administration. […]

HPA axis activity [2] = assay: HPA axis function measures (plasma ACTH, serum, saliva and urine cortisol, urine glucocorticoids) in MDD subjects of the clinical study; conditions: for Reduction of urine glucocorticoids compared to placebo: Day 6 to 7
Procedure: Higher urine glucocortioids was defined as ≧3.44 mg per mg creatinine, in a 24-hour collection on the day prior to initiation of study drug administration. The analysis of covariance model for Day 6 to 7 urine glucocorticoids included Day −2 to −1 (baseline) urine glucocorticoids as a covariate and factors for investigator, treatment and treatment * baseline urine glucocorticoids interaction.
(§1) A randomized, placebo-controlled, double-blind clinical study of the safety and pharmacodynamics of Compound A in subjects with MDD was conducted. Fifty-one subjects with a M.I.N.I.-confirmed primary diagnosis of MDD and a clinical global impression of severity of 3 or 4 were randomized to 800 mg Compound A QD (n=31) or matching placebo (n=20) for 7 days. Subjects were confined at clinical sites from two days prior to initial study drug administration until 24 hours after the last dose of study drug. HPA axis function was thoroughly assessed prior to study drug administration and on the 6th and 7th dosing days. A panel of genetic variants related to HPA axis function was assayed. One stated aim of this study was to define a means to identify MDD subjects more likely to respond to Compound A, prior to Compound A administration.
In a ROC analysis, the dependent variable was responder status based on a cutoff on GDM of −0.53. The independent variable was baseline amount of urine glucocorticoids (the sum of cortisol, cortisone, alpha-tetrahydrocortisol, beta-tetrahydrocortisol and tetrahydrocortisone) collected during a 24-hour interval, divided by the amount of creatinine in the same urine collection. The optimal cutoff was 3.44 mg glucocorticoids per mg creatinine. This provided a sensitivity of 58% (14/24 Compound A responders included) and specificity of 67% (4 of 6 Compound A non-responders excluded). One Compound A subject was not included in this analysis due to missing urine glucocorticoid data.

HPA axis activity [3] = assay: Urine glucocorticoids in healthy adults who received Compound A or placebo
Text: Higher urine glucocorticoids subjects are those in whom Compound A effects larger decreases of tonic HPA axis activity, and thus an appropriate population for treatment of MDD using a V1B antagonist.

subjects with MDD [4] = assay: Randomized, placebo-controlled, double-blind clinical study in subjects with MDD: MASQ and HAM-D symptom scores
Text: High AVP was defined as ≧8.6 pg/mL, in a sample drawn at approximately 8 am or 2 pm on the day prior to initiation of study drug administration. Least squares means and standard errors are shown from analyses of covariance that included Day −1 (baseline) score as a covariate and factors for investigator, treatment, AVP class and treatment * AVP class interaction.
as §1
AVP was the only parameter initially analyzed as a potential predictor of Compound A response as the daytime plasma level prior to study drug administration, measured at any of three times of day (approximately 8 am, 2 pm, and 10 pm), was the most prominent difference of baseline HPA axis function between MDD subjects in this study and HNV subjects of other studies.
Receiver operator characteristic (ROC) analysis was used. In a first ROC, the dependent variable was treatment and the independent variables were the MASQ subscales. This ROC aimed to define MASQ scale score changes that were characteristic of subjects who received Compound A and not characteristic of those who received placebo. Such score changes can be thought to distinguish Compound A responders from Compound A non-responders. Of the five MASQ subscales, General Distress Mixed (GDM) and Depressive (GDD) subscales differentiated Compound A from placebo subjects. […] Similar results were obtained when the dependent variables were analyzed as percent, rather than absolute, change from baseline.
The interaction of AVP (high v normal) and treatment (Compound A v placebo) is shown below. The dependent variables were the MASQ scale scores and the Hamilton Depression Rating Scale (HAM-D)—version score on Day 7. The corresponding scale score on Day −2 was a covariate in each model. Each model included factors for investigator, AVP, treatment and the interaction of AVP and treatment. […] MASQ total scores were normalized to a 1 to 5 scale.

subjects with MDD [5] = assay: as above; remark: listed apart in the source
[6] = Compound A 800 mg QD for 7 days v placebo, MDD subjects
[7] = ROC, dependent variable treatment (Compound A 800 mg QD, n=31, v placebo, n=20), MASQ GDM score change, cutoff X −0.53
[8] = high AVP ≧8.6 pg/mL, Compound A 800 mg QD v placebo
[9] = ROC, dependent variable treatment (Compound A 800 mg QD, n=31, v placebo, n=20), MASQ GDD score change, cutoff X −0.58

## CCOc1ncccc1[C@]1(NC(=O)N2CCN(C3CCN(C)CC3)CC2)C(=O)N(S(=O)(=O)c2ccc(OC)cc2OC)c2ccc(C#N)cc21 [Compound A]
[1]; high AVP MDD subjects
  Physiological response to a stressor (CRH challenge) compared to placebo: lower physiological response to a stressor
[1]; normal AVP MDD subjects
  Physiological response to a stressor (CRH challenge) compared to placebo: limited or no difference of stress response
HPA axis activity [2]; MDD subjects, comparison of the two AVP groups
  Neuroendocrine effects on plasma ACTH, serum cortisol, urine cortisol and total glucocorticoids, high AVP v normal AVP subjects: did not differ
HPA axis activity [2]; higher urine glucocorticoids MDD subjects (≧3.44 mg per mg creatinine at baseline)
  Reduction of urine glucocorticoids compared to placebo: larger reductions of urine glucocorticoids
HPA axis activity [2]; lower urine glucocorticoids MDD subjects
  Reduction of urine glucocorticoids compared to placebo: limited or no difference of reduction of urine glucocorticoids
HPA axis activity [3]
  Relationship of baseline urine glucocorticoids and reduction of urine glucocorticoids compared to placebo: The same relationship has been observed
Subjects with MDD [4]; [6]
  ANCOVA factor for treatment on MASQ GDM and GDD subscales: statistically significant factors for treatment
Subjects with MDD [4]; [7]
  False Negative: 7
  True Positive: 24
Subjects with MDD [4]; [8]
  Interaction of AVP (high v normal) and treatment, MASQ GDD score on Day 7: statistically significant
  Interaction of AVP (high v normal) and treatment, MASQ GDM, AD and 7-item HAM-D scores on Day 7: numerically favorable trends
Subjects with MDD [5]; [6]
  ANCOVA factor for treatment on MASQ AD, AA and GDA subscales: not
Subjects with MDD [5]; [9]
  False Negative: 3
  True Positive: 28
Subjects with MDD [5]; higher ≧3.44 mg per mg creatinine, 24-hour collection
  Interaction of urine glucocorticoids divided by creatinine (higher v lower) and treatment, MASQ GDM, GDD, GDA, AA and 17- and 7-item HAM-D: numerically favorable trends
Subjects with MDD [5]; higher ≧3.44 mg per mg creatinine, 24-hour collection, all dependent variables
  Interaction of urine glucocorticoids divided by creatinine (higher v lower) and treatment, MASQ and HAM-D scores on Day 7: not statistically significant
Subjects with MDD [5]; subset of subjects distinguished by AVP, copeptin and rs7088418/rs17169521 genotypes
  Symptom changes on MASQ and HAM-D: more favorable symptom changes
Subjects with MDD [5]; subset of subjects distinguished by NR3C1 genotypes (rs10482672; similar for rs17100236)
  Symptom changes on MASQ and HAM-D: unfavorable symptom changes
